Laboratory results from US20130217722A1, “NOVEL COMPOUND USEFUL FOR THE TREATMENT OF DEGENERATIVE AND INFLAMMATORY DISEASES” (priority 2012, published 2013).

Tested on: rat CIA model
Test: Rat collagen induced arthritis (CIA) model
Type: in vivo
Conditions: p.o., therapeutic dosing day 16 to day 30
Description: Completed Freund's adjuvant (CFA) and incomplete Freund's adjuvant (IFA) were purchased from Difco. Bovine collagen type II (CII), lipopolysaccharide (LPS), and Enbrel was obtained from Chondrex (Isle d'Abeau, France); Sigma (P4252, L'Isle d'Abeau, France), Whyett (25 mg injectable syringe, France) Acros Organics (Palo Alto, Calif.), respectively. All other reagents used were of reagent grade and all solvents were of analytical grade.
Dark Agouti rats (male, 7-8 weeks old) were obtained from Harlan Laboratories (Maison-Alfort, France). Rats were kept on a 12 h light/dark cycle (0700-1900). Temperature was maintained at 22° C., and food and water were provided ad libitum.
One day before the experiment, CII solution (2 mg/mL) was prepared with 0.05 M acetic acid and stored at 4° C. Just before the immunization, equal volumes of adjuvant (IFA) and CII were mixed by a homogenizer in a pre-cooled glass bottle in an ice water bath. Extra adjuvant and prolonged homogenization may be required if an emulsion is not formed. […]
Arthritis is scored according to the method of Khachigian 2006, Lin et al 2007 and Nishida et al. 2004). […]
The area under the curve (AUC) from day 1 to day 14 was calculated for each individual rat. The AUC of each animal was divided by the average AUC obtained for the vehicle in the study from which the data on that animal was obtained and multiplied by 100 (i.e. the AUC was expressed as a percentage of the average vehicle AUC per study).
The clinical score difference for each animal was divided by the average clinical score difference obtained for the vehicle in the study from which the data on that animal was obtained and multiplied by 100 (i.e. the difference was expressed as a percentage of the average clinical score difference for the vehicle per study).
Clinically, body weight loss is associated with arthritis (Shelton et al., 2005; Rall, 2004; Walsmith et al., 2004). […] The change in body weight (%) after onset of arthritis was calculated as follows: […]

Measured: efficacy in rat CIA model

CCc1cc(C2=CCN(C(=O)CC#N)CC2)ccc1N(C)c1cc2c(cn1)ncn2C [Compound 1]
statistically significant efficacy: 1 mg/kg | 3 mg/kg | 10 mg/kg
